Source: the NIST ThermoML archive (doi:10.1021/je1007197)

Experiment: xn = mol fraction of the nth substance listed
Details: Liquid, Hot wire method

CCCCOCCO [2-butoxyethan-1-ol] + O
Details	thermal conductivity [W/m/K]
304.15 K, 100 kPa, x1 = 0.0478	0.4533
304.15 K, 100 kPa, x1 = 0.1732	0.2813
304.15 K, 100 kPa, x1 = 0.5	0.1837
304.15 K, 100 kPa, x1 = 0.75	0.1655
304.15 K, 10300 kPa, x1 = 0.5	0.1877
304.15 K, 10300 kPa, x1 = 0.75	0.169
304.15 K, 14200 kPa, x1 = 0.0478	0.4568
304.15 K, 15000 kPa, x1 = 0.5	0.189
304.15 K, 19300 kPa, x1 = 0.75	0.1717
304.15 K, 20300 kPa, x1 = 0.1732	0.2857
304.15 K, 26700 kPa, x1 = 0.5	0.1936
304.15 K, 27300 kPa, x1 = 0.0478	0.4622
304.15 K, 30000 kPa, x1 = 0.1732	0.2896
304.15 K, 39500 kPa, x1 = 0.75	0.1771
304.15 K, 41800 kPa, x1 = 0.0478	0.468
304.15 K, 41800 kPa, x1 = 0.5	0.1963
304.15 K, 47200 kPa, x1 = 0.1732	0.2942
304.15 K, 54700 kPa, x1 = 0.5	0.1995
304.15 K, 54700 kPa, x1 = 0.75	0.1812
304.15 K, 55400 kPa, x1 = 0.0478	0.4704
304.15 K, 70100 kPa, x1 = 0.0478	0.4758
304.15 K, 70200 kPa, x1 = 0.1732	0.3008
304.15 K, 70200 kPa, x1 = 0.5	0.2032
304.15 K, 76500 kPa, x1 = 0.75	0.1862
304.15 K, 83900 kPa, x1 = 0.0478	0.478
304.15 K, 84200 kPa, x1 = 0.1732	0.3043
304.15 K, 84200 kPa, x1 = 0.5	0.2066
304.15 K, 91200 kPa, x1 = 0.75	0.19
304.15 K, 98200 kPa, x1 = 0.0478	0.4845
304.15 K, 98200 kPa, x1 = 0.1732	0.3077
304.15 K, 98200 kPa, x1 = 0.75	0.1901
304.15 K, 108700 kPa, x1 = 0.5	0.2127
304.15 K, 110400 kPa, x1 = 0.1732	0.311
304.15 K, 112100 kPa, x1 = 0.0478	0.4875
304.15 K, 112200 kPa, x1 = 0.75	0.1951
304.15 K, 124800 kPa, x1 = 0.5	0.2157
304.15 K, 126000 kPa, x1 = 0.0478	0.4917
304.15 K, 126200 kPa, x1 = 0.1732	0.3147
304.15 K, 127600 kPa, x1 = 0.75	0.1976
304.15 K, 138700 kPa, x1 = 0.0478	0.4958
304.15 K, 140100 kPa, x1 = 0.1732	0.3175
304.15 K, 140100 kPa, x1 = 0.5	0.2189
304.15 K, 140100 kPa, x1 = 0.75	0.2005
304.15 K, 150600 kPa, x1 = 0.1732	0.3195
304.15 K, 150600 kPa, x1 = 0.75	0.2022
317.15 K, 100 kPa, x1 = 0.0478	0.4606
317.15 K, 16400 kPa, x1 = 0.0478	0.4669
317.15 K, 25500 kPa, x1 = 0.0478	0.4697
317.15 K, 41800 kPa, x1 = 0.0478	0.475
317.15 K, 56100 kPa, x1 = 0.0478	0.4789
317.15 K, 70600 kPa, x1 = 0.0478	0.485
317.15 K, 84200 kPa, x1 = 0.0478	0.4875
317.15 K, 98200 kPa, x1 = 0.0478	0.4926
317.15 K, 112200 kPa, x1 = 0.0478	0.4983
317.15 K, 124000 kPa, x1 = 0.0478	0.5008
317.15 K, 141000 kPa, x1 = 0.0478	0.5066
320.9 K, 100 kPa, x1 = 0.0478	0.4774
320.9 K, 2300 kPa, x1 = 0.0478	0.4714
320.9 K, 5000 kPa, x1 = 0.0478	0.4639
320.9 K, 7500 kPa, x1 = 0.0478	0.4677
320.9 K, 10000 kPa, x1 = 0.0478	0.4694
320.9 K, 12500 kPa, x1 = 0.0478	0.4703
320.9 K, 15000 kPa, x1 = 0.0478	0.4705
320.9 K, 19500 kPa, x1 = 0.0478	0.4737
320.9 K, 20000 kPa, x1 = 0.0478	0.4742
320.9 K, 29800 kPa, x1 = 0.0478	0.4774
320.9 K, 52500 kPa, x1 = 0.0478	0.4855
320.9 K, 70200 kPa, x1 = 0.0478	0.4855
320.9 K, 87700 kPa, x1 = 0.0478	0.4986
320.9 K, 105200 kPa, x1 = 0.0478	0.5044
320.9 K, 126200 kPa, x1 = 0.0478	0.5123
321.15 K, 100 kPa, x1 = 0.5	0.1829
321.15 K, 100 kPa, x1 = 0.75	0.1624
321.15 K, 10000 kPa, x1 = 0.5	0.1864
321.15 K, 10000 kPa, x1 = 0.75	0.1656
321.15 K, 19300 kPa, x1 = 0.5	0.1892
321.15 K, 19300 kPa, x1 = 0.75	0.1693
321.15 K, 19700 kPa, x1 = 0.5	0.1896
321.15 K, 28300 kPa, x1 = 0.75	0.1718
321.15 K, 39300 kPa, x1 = 0.75	0.1744
321.15 K, 41800 kPa, x1 = 0.5	0.1959
321.15 K, 56100 kPa, x1 = 0.5	0.2001
321.15 K, 56100 kPa, x1 = 0.75	0.1792
321.15 K, 70200 kPa, x1 = 0.5	0.2034
321.15 K, 71600 kPa, x1 = 0.75	0.1836
321.15 K, 84200 kPa, x1 = 0.5	0.2073
321.15 K, 84200 kPa, x1 = 0.75	0.1871
321.15 K, 96500 kPa, x1 = 0.5	0.2099
321.15 K, 98900 kPa, x1 = 0.75	0.1907
321.15 K, 111500 kPa, x1 = 0.75	0.1929
321.15 K, 112200 kPa, x1 = 0.5	0.2144
321.15 K, 124800 kPa, x1 = 0.75	0.1959
321.15 K, 126900 kPa, x1 = 0.5	0.2172
321.15 K, 141500 kPa, x1 = 0.5	0.2201
321.15 K, 142200 kPa, x1 = 0.75	0.1998
321.15 K, 149900 kPa, x1 = 0.5	0.2213
321.15 K, 150600 kPa, x1 = 0.75	0.2016
322 K, 100 kPa, x1 = 0.0478	0.4932
322 K, 5400 kPa, x1 = 0.0478	0.4886
322 K, 20000 kPa, x1 = 0.0478	0.4931
322 K, 34600 kPa, x1 = 0.0478	0.5006
322 K, 52500 kPa, x1 = 0.0478	0.5069
322 K, 70200 kPa, x1 = 0.0478	0.5149
322 K, 87700 kPa, x1 = 0.0478	0.5221
322 K, 105200 kPa, x1 = 0.0478	0.528
322 K, 119200 kPa, x1 = 0.0478	0.5322
322 K, 133200 kPa, x1 = 0.0478	0.5354
335 K, 100 kPa, x1 = 0.1732	0.2804
335 K, 10000 kPa, x1 = 0.1732	0.2851
335 K, 19000 kPa, x1 = 0.1732	0.2895
335 K, 41800 kPa, x1 = 0.1732	0.2972
335 K, 70200 kPa, x1 = 0.1732	0.306
335 K, 84200 kPa, x1 = 0.1732	0.3077
335 K, 98200 kPa, x1 = 0.1732	0.3111
335 K, 112200 kPa, x1 = 0.1732	0.3153
335 K, 125500 kPa, x1 = 0.1732	0.3205
335 K, 137300 kPa, x1 = 0.1732	0.3218
338.15 K, 100 kPa, x1 = 0.5	0.1796
338.15 K, 100 kPa, x1 = 0.75	0.1594
338.15 K, 10400 kPa, x1 = 0.5	0.1841
338.15 K, 11000 kPa, x1 = 0.75	0.1637
338.15 K, 19000 kPa, x1 = 0.5	0.1866
338.15 K, 19500 kPa, x1 = 0.5	0.1867
338.15 K, 19500 kPa, x1 = 0.75	0.1663
338.15 K, 30700 kPa, x1 = 0.75	0.1702
338.15 K, 39300 kPa, x1 = 0.75	0.1723
338.15 K, 41800 kPa, x1 = 0.5	0.1936
338.15 K, 56100 kPa, x1 = 0.5	0.1986
338.15 K, 56100 kPa, x1 = 0.75	0.1767
338.15 K, 70200 kPa, x1 = 0.5	0.2018
338.15 K, 70200 kPa, x1 = 0.75	0.1812
338.15 K, 80700 kPa, x1 = 0.5	0.2039
338.15 K, 91200 kPa, x1 = 0.75	0.1868
338.15 K, 98200 kPa, x1 = 0.5	0.2083
338.15 K, 105200 kPa, x1 = 0.75	0.1907
338.15 K, 112200 kPa, x1 = 0.5	0.2118
338.15 K, 117800 kPa, x1 = 0.75	0.1924
338.15 K, 126200 kPa, x1 = 0.5	0.2146
338.15 K, 131800 kPa, x1 = 0.75	0.1964
338.15 K, 140800 kPa, x1 = 0.5	0.2183
338.15 K, 147100 kPa, x1 = 0.75	0.1997
346.5 K, 100 kPa, x1 = 0.1732	0.2659
346.5 K, 10000 kPa, x1 = 0.1732	0.2753
346.5 K, 20000 kPa, x1 = 0.1732	0.2796
346.5 K, 29500 kPa, x1 = 0.1732	0.2834
346.5 K, 49000 kPa, x1 = 0.1732	0.2904
346.5 K, 84200 kPa, x1 = 0.1732	0.3009
346.5 K, 98200 kPa, x1 = 0.1732	0.3029
346.5 K, 112200 kPa, x1 = 0.1732	0.3046
346.5 K, 122700 kPa, x1 = 0.1732	0.31
346.5 K, 140100 kPa, x1 = 0.1732	0.3122
346.5 K, 148500 kPa, x1 = 0.1732	0.3128
